Assay results from patent EP4806892A1, “CEREBLON E3 UBIQUITIN LIGASE INHIBITOR” (GAN & LEE PHARMACEUTICALS CO., LTD., priority 2023, dated 2025).

Legend:
Format in all cases: cell-based
[1] = system: TNFα; experiment: LPS-induced TNFα secretion by PBMC (HTRF detection); conditions: Homo sapiens, hPBMC, 20 hours compound then LPS 200 ng/mL for 5 hours, read-out: IC50 (inhibition of LPS-induced TNFα)
Procedure: (§1) After thawing, cryopreserved hPBMC (FPB003F-C, Shanghai OriBiotech) cells were resuspended in RPMI 1640 medium (30-2001,ATCC) containing 10% inactivated FBS (10099141C, Gibco) and cultured overnight at 37°C and 5% CO2. The next day, hPBMC cells were seeded in a 96-well cell culture plate at a density of 2 × 10^5 cells/well/100 µL (2 × 10^6 cells/mL), and 100 µL of compound in dimethyl sulfoxide solution (final concentration 0.0064-2500 nM) was added. […] The cell plate was placed in a 37°C, 5% CO2 incubator for 5 hours, and then centrifuged at 1000 rpm for 15 minutes. 100 µL of cell supernatant was collected from each well for cytokine concentration testing, which was tested immediately or frozen at -80°C for testing.
The TNFα concentration in the supernatant of LPS-induced THP-1 cells was determined using the TNF […] detection kit (62[…], PerkinElmer).
TNFα standard solutions of varying concentrations were prepared according to the product instructions, ranging from 0 to 2500 pg/mL. Equal volumes of Eu Cryptate antibody (1×) and d2 antibody (1×) were used to prepare the antibody mixture. 16 µL of standard solution or sample supernatant and 4 µL of the antibody mixture were added to each well of a 384-well white plate. The mixture was centrifuged at 800 rpm for 1 minute and incubated at room temperature for 2 hours. The absorbance at 620 nm and […] was read using a microplate reader (SPARK m1000pro, TECAN). A standard curve was plotted using the signal values of each TNFα standard solution. The TNFα concentration in each sample was determined based on the corresponding concentration of the signal value on the standard curve. The inhibitory rate of the compound on LPS-induced TNFα expression in THP-1 cell supernatants at different drug concentrations was calculated based on the TNFα concentration. The inhibition rate data were plotted in GraphPad Prism 8.0 software, and the IC50 value was calculated. Inhibition Rate = [1−(OD(Sample)−OD(Blank))/(OD(Control)−OD(Blank))] × 100% [formula] Table 9: Degradation effect of example compounds on IRAK4 in PBMC cells

[2] = target: T1, IRAK4 (Homo sapiens, UniProt Q9NWZ3); experiment: IRAK4 degradation in THP-1 cells (Western blot); conditions: 24 hours
T1 construct: The supernatant was carefully collected and analyzed for IRAK4 protein levels by immunoblotting; host or cells: THP-1
T1 sequence (Q9NWZ3 1-460): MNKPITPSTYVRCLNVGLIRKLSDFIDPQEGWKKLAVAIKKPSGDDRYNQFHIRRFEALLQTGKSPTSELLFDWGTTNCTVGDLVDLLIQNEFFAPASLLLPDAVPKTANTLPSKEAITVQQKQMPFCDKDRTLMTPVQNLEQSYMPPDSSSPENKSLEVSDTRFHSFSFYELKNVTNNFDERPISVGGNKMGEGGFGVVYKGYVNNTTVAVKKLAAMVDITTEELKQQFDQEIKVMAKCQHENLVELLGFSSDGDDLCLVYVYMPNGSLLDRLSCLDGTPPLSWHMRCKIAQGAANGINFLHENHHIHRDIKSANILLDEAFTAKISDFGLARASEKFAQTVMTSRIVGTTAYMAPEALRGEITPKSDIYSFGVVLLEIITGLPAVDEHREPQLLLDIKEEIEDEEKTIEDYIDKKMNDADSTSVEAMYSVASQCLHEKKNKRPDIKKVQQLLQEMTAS
Procedure: 2 mL of THP-1 cells were seeded into a 6-well cell culture plate at a density of 4 × 10^5 cells/well. After adding 1 µL of compound in dimethyl sulfoxide solution (final concentration 10-10,000 nM) and continuing to incubate at 37°C, 5% CO2 for 24 hours, cells were collected into 2 mL centrifuge tubes and centrifuged at 125 g at 4°C for 5 minutes. The cell pellet was washed once with 1 mL of pre-chilled 1× DPBS and resuspended and lysed in 50 µL of RIPA lysis buffer (P0013B, Beyotime) and 1× protease inhibitor cocktail (P1005, Beyotime). After incubation on ice for 20 minutes, the cells were centrifuged at 14,000 g at 4°C for 30 minutes. The supernatant was carefully collected and analyzed for IRAK4 protein levels by immunoblotting.
Western blotting: The total protein concentration in the collected cell lysate supernatant was determined using the BCA protein concentration assay kit (enhanced) (P0009, Beyotime). Based on the total protein concentration detected by BCA, the protein concentration was adjusted to 1 µg/µL using RIPA lysis buffer and 5× SDS-PAGE protein loading buffer (MB01015, GenScript). The protein was denatured in a 95°C water bath for 5 minutes. After denaturation, the condensed water on the centrifuge tube wall was collected by centrifugation and used as the loading sample. […] Electrophoresis was performed at 100 V for 20 minutes, then switched to 150 V for 40 minutes. After electrophoresis, the proteins in the SDS-PAGE gel were transferred to a PVDF membrane and transferred at a constant voltage of 100 V for 60 minutes. After transfer, the PVDF membrane corresponding to the IRAK4 protein and internal reference protein was cut and incubated in 1× QuickBlock blocking buffer (P0252, Beyotime) for 30 minutes at room temperature on a shaker. […] After incubation, the PVDF membrane was washed three times with 1× TBST buffer for 5 minutes each. […] The membrane was then washed again three times with 1× TBST buffer for 5 minutes each. Finally, the membrane was imaged using a dual-color infrared laser imaging system (Odyssey DLx, LI-COR). Protein maps were analyzed for grayscale values using Image Studio Lite software. The grayscale correction value for each sample was calculated using the formula: grayscale correction value = grayscale value of the target protein / grayscale value of the corresponding internal reference. The grayscale correction values of the compound group and the control group were then compared to calculate the degradation rate of the compound.

[3] = system: IL-6; experiment: LPS-induced IL-6 secretion by hPBMC (ELISA); conditions: Homo sapiens, 20 h compound then LPS 200 ng/mL for 5 h; for inhibition at […]: 2500nM, read-out: Inhibition Rate of IL-6 (2500nM)
Procedure: as §1, with “OriBiotech.)” for “OriBiotech)”, “(30-2001, ATCC)” for “(30-2001,ATCC)”, “h,” for “hours,”, “min.” for “minutes.”, “awhich” for “which”
The IL-6 concentration in the supernatant of hPBMC cells induced by LPS was determined using a Human IL-6 ELISA kit (D6050, RD).
IL-6 standard solutions of varying concentrations were prepared according to the product instructions, ranging from 0 to 300 pg/mL. 100 µL of Assay Diluent RD1W and 100 µL of standard solution or sample supernatant were added to a pre-coated ELISA plate and incubated at room temperature for 2 hours. After washing the plate four times with 1× wash buffer, then 200 µL of Human IL-6 Conjugate was added and incubated at room temperature for 2 hours. After washing the plate four times with 1× wash buffer, then 200 µL of Substrate Solution was added and incubated at room temperature for 20 minutes. Finally, 50 µL of Stop Solution was added to terminate the reaction. The absorbance at 450 nm and 570 nm were read using a microplate reader (SPARK m1000pro, TECAN). The standard curve was plottd by the signal value of each concentration of IL-6 standard solution, and the IL-6 concentration in each sample was determined according to the corresponding concentration of the signal value of each well on the standard curve. The inhibition rate of the compound on LPS-induced IL-6 in the hPBMC cell supernatant at different drug concentrations was calculated according to the IL-6 concentration. The inhibition rate data were plotted in GraphPad Prism 8.0 software to calculate the IC50 value. Inhibition Rate = [1−(OD(sample)−OD(blank))/(OD(control)−OD(blank))] × 100% [formula] Table 10: Inhibitory effect of Example compounds on LPS-induced IL-6 secretion by hPBMC

## O=C1CCN(c2ccc3c(c2)OCC[C@H]2CN(C[C@H]4CC[C@@H](OC5CCN(C(=O)[C@H]6CC[C@H](n7cc(NC(=O)c8cnn9ccc(N%10C[C@H]%11C[C@@H]%10CO%11)nc89)c(C(F)F)n7)CC6)CC5)CC4)CCN32)C(=O)N1 [IR-P-1]
[1]
  IC50: 78.6 nM
[2]
  IRAK4 degradation (10nM): B (50% > degradation rate ≥ 20%)
  IRAK4 degradation (100nM): B (50% > degradation rate ≥ 20%)
[3]
  inhibition at […]: 87%

## O=C1CCN(c2ccc3c(c2)OCC[C@@H]2CN(C[C@H]4CC[C@@H](OC5CCN(C(=O)[C@H]6CC[C@H](n7cc(NC(=O)c8cnn9ccc(N%10C[C@H]%11C[C@@H]%10CO%11)nc89)c(C(F)F)n7)CC6)CC5)CC4)CCN32)C(=O)N1 [IR-P-2]
[1]
  IC50: 184 nM
[2]
  IRAK4 degradation (10nM): B (50% > degradation rate ≥ 20%)
  IRAK4 degradation (100nM): B (50% > degradation rate ≥ 20%)
[3]
  inhibition at […]: 86%

## O=C1CCN(c2ccc3c(c2)OCC[C@H]2CN(C[C@H]4CC[C@H](OC5CCN(C(=O)[C@H]6CC[C@H](n7cc(NC(=O)c8cnn9ccc(N%10C[C@H]%11C[C@@H]%10CO%11)nc89)c(C(F)F)n7)CC6)CC5)CC4)CCN32)C(=O)N1 [IR-P-3]
[1]
  IC50: 64.3 nM
[2]
  IRAK4 degradation (10nM): A (a degradation rate ≥ 50%)
  IRAK4 degradation (100nM): A (a degradation rate ≥ 50%)
[3]; 20nM, read-out: Inhibition Rate of IL-6 (20nM)
  inhibition at 0.02 µM: 63%
[3]
  inhibition at […]: 89%

## O=C1CCN(c2ccc3c(c2)OCC[C@@H]2CN(C[C@H]4CC[C@H](OC5CCN(C(=O)[C@H]6CC[C@H](n7cc(NC(=O)c8cnn9ccc(N%10C[C@H]%11C[C@@H]%10CO%11)nc89)c(C(F)F)n7)CC6)CC5)CC4)CCN32)C(=O)N1 [IR-P-4]
[1]
  IC50: 142 nM
[2]
  IRAK4 degradation (10nM): B (50% > degradation rate ≥ 20%)
  IRAK4 degradation (100nM): A (a degradation rate ≥ 50%)
[3]
  inhibition at […]: 84%

## O=C1CCN(c2ccc3c(c2)OC2(CC3)CN(CC3CCN(C(=O)[C@H]4CC[C@H](n5cc(NC(=O)c6cnn7ccc(N8C[C@H]9C[C@@H]8CO9)nc67)c(C(F)F)n5)CC4)CC3)C2)C(=O)N1 [IR-P-5]
[1]
  IC50: 69.6 nM
[2]
  IRAK4 degradation (10nM): B (50% > degradation rate ≥ 20%)
[3]
  inhibition at […]: 78%
